Measurements from patent publication US9795678B2, “Fast-acting insulin composition comprising a substituted anionic compound and a polyanionic compound” (ADOCIA, priority 2014, dated 2017).

How the values were obtained:
[1] = molecular target: hexameric form R6 of lispro insulin (Homo sapiens, UniProt P01308, K53P/P52K); experiment: Circular dichroism, CD signal of lispro insulin at 240 nm; settings: lispro insulin 100 IU/mL; substituted anionic compound 7.3 mg/mL; citrate 9.3 mM; EDTA 300 μM
[2] = molecular target: T1, hexameric structure of human insulin (Homo sapiens, UniProt P01308); experiment: Circular dichroism, CD signal of human insulin at 276 nm; type: physicochemical; settings: rhINS 100 IU/ml; Compound 7.3 mg/mL
T1 construct: the insulin is a recombinant human insulin as described in the European pharmacopea and the American pharmacopea
T1 sequence (P01308 25-54 limits assumed): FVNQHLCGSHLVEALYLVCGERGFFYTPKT
T1 sequence (P01308 90-110 limits assumed): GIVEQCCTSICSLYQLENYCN
Description: The CD signal at 276 nm is characteristic of the hexameric form of insulin (hexamer signal at about −300°, dimer signal between −200° and −250° and monomer signal below −200°). Loss of the CD signal at 276 nm is thus characteristic of a destabilization of the hexamer into dimers or monomers.

[3] = cited from earlier work

Chain of hexameric form R6 of lispro insulin (P01308 25-54 P52K/K53P limits assumed): as the sequence (P01308 25-54 limits assumed) above, with P28K, K29P counted along it

Row | Compound | Impact on the R6 form of lispro insulin (CD signal at 240 nm) [1] | Impact on the hexameric structure of human insulin (CD signal at 276 nm) [2] | delay of action when compared with a rapid insulin analog (dissociation of hexamers into dimers and monomers) ([3]; Brange J., et al., 1999) | time after which a hypoglycemiant effect occurs ([3]; injected subcutaneously, diabetic patients)
1 | O=C(O)CC(O)(CC(=O)O)C(=O)O [citrate] | no impact | no impact | – | –
2 | human insulin: human insulin produced by genetic engineering | – | – | up to 20 minutes | 60 min
3 | O=C(O)CN(CCN(CC(=O)O)CC(=O)O)CC(=O)O [EDTA] | completely destructures | very pronounced impact | – | –
4 | O=C(O)CCC(=O)N[C@@H](Cc1ccccc1)C(=O)O [Substituted anionic compound A1, N-(3-carboxy-1-oxopropyl-)-L-phenylalanine] | – | no impact | – | –
